Source: ChEMBL document CHEMBL5352441, “Modulation of FLT3-ITD and CDK9 in acute myeloid leukaemia cells by novel proteolysis targeting chimera (PROTAC)” (2022)
Calls of active or inactive are those of the source. The calls are words filed in the database; no cut-off is given here.

Key:
[1] = test system: MV4-11; test: Induction of cell cycle arrest in human MV4-11 cells assessed as accumulation of cells at G1 phase at 2.5 uM incubated for 16 hrs by PI staining based flow cytometry analysis (reference value: 62.97%); format: functional
[2] = test system: MV4-11; test: Downregulation of HOXA9 gene expression in human MV4-11 cells incubated for 4 hrs by qRT-PCR analysis; format: functional, cell-based; details: dose 0.004-2.5 µM
[3] = test system: MV4-11; test: Induction of cell cycle arrest in CRBN-deficient human MV4-11 cells assessed as accumulation of cells at S phase at 2.5 uM incubated for 16 hrs by PI staining based flow cytometry analysis (reference value: 36.91%); format: functional
[4] = test system: MV4-11; test: Induction of cell cycle arrest in CRBN-deficient human MV4-11 cells assessed as accumulation of cells at G2/M phase at 0.1 uM incubated for 16 hrs by PI staining based flow cytometry analysis (reference value: 9.34%); format: functional
[5] = test system: MOLM-13; test: Antiproliferative activity against human MOLM-13 cells harboring FLT3-ITD mutation assessed as cell growth inhibition incubated for 72 hrs by resazurin dye based fluorescence analysis; format: functional
[6] = test system: MV4-11; test: Induction of cell cycle arrest in human MV4-11 cells assessed as accumulation of cells at subG1 phase at 0.004 uM incubated for 16 hrs by PI staining based flow cytometry analysis (reference value: 10.51%); format: functional
[7] = target: T1, Protein cereblon/Cyclin-dependent kinase 9 (Homo sapiens) (UniProt P50750+Q96SW2); test: PROTAC activity at CRBN/CDK9 in human MV4-11 cells at 0.1 to 0.5 uM preincubated for 90 mins with 4-hydroxythalidomide followed by compound addition and further incubated for 16 hrs by immunoblot analysis; format: cell-based; details: dose 0.1-0.5 µM
[8] = target: T2, Protein cereblon/Receptor-type tyrosine-protein kinase FLT3 (Homo sapiens) (UniProt P36888+Q96SW2); test: PROTAC activity at CRBN/FLT3 in human MV4-11 cells harboring FLT3-ITD mutation assessed as induction of protein degradation at […] incubated for 16 hrs by immunoblot analysis; format: cell-based
[9] = target: T2, Protein cereblon/Receptor-type tyrosine-protein kinase FLT3 (Homo sapiens); test: PROTAC activity at CRBN/FLT3 in human MV4-11 cells harboring FLT3-ITD mutation assessed as induction of protein degradation at low nanomolar concentrations incubated for 16 hrs by immunoblot analysis; format: cell-based
[10] = test system: MV4-11; test: Induction of cell cycle arrest in human MV4-11 cells assessed as accumulation of cells at subG1 phase at 0.02 uM incubated for 16 hrs by PI staining based flow cytometry analysis (reference value: 10.51%); format: functional
[11] = test system: MV4-11; test: Induction of cell cycle arrest in human MV4-11 cells assessed as accumulation of cells at G1 phase at 0.02 uM incubated for 16 hrs by PI staining based flow cytometry analysis (reference value: 62.97%); format: functional
[12] = test system: MV4-11; test: Induction of cell cycle arrest in CRBN-deficient human MV4-11 cells assessed as accumulation of cells at sub-G1 phase at 0.1 uM incubated for 16 hrs by PI staining based flow cytometry analysis (reference value: 12.52%); format: functional
[13] = test system: MV4-11; test: Induction of cell cycle arrest in human MV4-11 cells assessed as accumulation of cells at G2/M phase at 0.5 uM incubated for 16 hrs by PI staining based flow cytometry analysis (reference value: 10.86%); format: functional
[14] = test system: Kasumi 1; test: Antiproliferative activity against human Kasumi 1 cells assessed as cell growth inhibition incubated for 72 hrs by resazurin dye based fluorescence analysis; format: functional
[15] = test system: MV4-11; test: Induction of cell cycle arrest in CRBN-deficient human MV4-11 cells assessed as accumulation of cells at G2/M phase at 0.02 uM incubated for 16 hrs by PI staining based flow cytometry analysis (reference value: 9.34%); format: functional
[16] = test system: Receptor-type tyrosine-protein kinase FLT3 (Homo sapiens), P36888 [UNDEFINED MUTATION]; test: Inhibition of FLT3 in human MV4-11 cells harboring FLT3-ITD mutation assessed as reduction in ERK1/2 phosphorylation at T202/Y204 residue at 0.004 to 2.5 uM incubated for 16 hrs by immunoblot analysis; format: cell-based; details: dose 0.004-2.5 µM
[17] = target: T1, Protein cereblon/Cyclin-dependent kinase 9 (Homo sapiens); test: PROTAC activity at CRBN/CDK9 in human MV4-11 cells at 0.1 to 0.5 uM preincubated for 90 mins with MG132 followed by compound addition and further incubated for 16 hrs by immunoblot analysis; format: cell-based; details: dose 0.1-0.5 µM
[18] = test system: MV4-11; test: Induction of cell cycle arrest in human MV4-11 cells assessed as accumulation of cells at G1 phase at 0.1 uM incubated for 16 hrs by PI staining based flow cytometry analysis (reference value: 62.97%); format: functional
[19] = target: T2, Protein cereblon/Receptor-type tyrosine-protein kinase FLT3 (Homo sapiens); test: PROTAC activity at CRBN/FLT3 in CRBN-deficient human MV4-11 cells assessed as induction of protein degradation at 0.004 to 2.5 uM incubated for 16 hrs by immunoblot analysis; format: cell-based; details: dose 0.004-2.5 µM
[20] = test system: MV4-11; test: Induction of cell cycle arrest in CRBN-deficient human MV4-11 cells assessed as accumulation of cells at sub-G1 phase at 2.5 uM incubated for 16 hrs by PI staining based flow cytometry analysis (reference value: 12.52%); format: functional
[21] = test system: CCRF-CEM; test: Antiproliferative activity against human CEM cells assessed as cell growth inhibition incubated for 72 hrs by resazurin dye based fluorescence analysis; format: functional
[22] = test system: MV4-11; test: Induction of cell cycle arrest in human MV4-11 cells assessed as accumulation of cells at S phase at 0.5 uM incubated for 16 hrs by PI staining based flow cytometry analysis (reference value: 26.16%); format: functional
[23] = target: Receptor-type tyrosine-protein kinase FLT3 (Homo sapiens) (UniProt P36888); test: Inhibition of human FLT3 assessed as residual activity at 100 nM relative to control
[24] = test system: MV4-11; test: Induction of cell cycle arrest in CRBN-deficient human MV4-11 cells assessed as accumulation of cells at G1 phase at 0.5 uM incubated for 16 hrs by PI staining based flow cytometry analysis (reference value: 54.05%); format: functional
[25] = test system: MV4-11; test: Induction of cell cycle arrest in human MV4-11 cells assessed as accumulation of cells at G2/M phase at 0.1 uM incubated for 16 hrs by PI staining based flow cytometry analysis (reference value: 10.86%); format: functional
[26] = test system: MV4-11; test: Induction of cell cycle arrest in CRBN-deficient human MV4-11 cells assessed as accumulation of cells at sub-G1 phase at 0.02 uM incubated for 16 hrs by PI staining based flow cytometry analysis (reference value: 12.52%); format: functional
[27] = test system: MV4-11; test: Induction of cell cycle arrest in CRBN-deficient human MV4-11 cells assessed as accumulation of cells at S phase at 0.004 uM incubated for 16 hrs by PI staining based flow cytometry analysis (reference value: 36.91%); format: functional
[28] = test system: MV4-11; test: Downregulation of MCL-1 gene expression in human MV4-11 cells incubated for 4 hrs by qRT-PCR analysis; format: functional, cell-based; details: dose 0.004-2.5 µM
[29] = test system: MV4-11; test: Induction of cell cycle arrest in CRBN-deficient human MV4-11 cells assessed as accumulation of cells at sub-G1 phase at 0.004 uM incubated for 16 hrs by PI staining based flow cytometry analysis (reference value: 12.52%); format: functional
[30] = target: Receptor-type tyrosine-protein kinase FLT3 (Homo sapiens) (UniProt P36888); test: Inhibition of FLT3 signalling pathway in human MV4-11 cells assessed as reduction in ERK1/2 phosphorylation at T202/Y204 residues at 0.1 to 0.5 uM preincubated for 90 mins with 4-hydroxythalidomide followed by compound addition and further incubated for 16 hrs by immunoblot analysis; format: cell-based; details: dose 0.1-0.5 µM

T2 sequence (P36888 27-993 limits assumed): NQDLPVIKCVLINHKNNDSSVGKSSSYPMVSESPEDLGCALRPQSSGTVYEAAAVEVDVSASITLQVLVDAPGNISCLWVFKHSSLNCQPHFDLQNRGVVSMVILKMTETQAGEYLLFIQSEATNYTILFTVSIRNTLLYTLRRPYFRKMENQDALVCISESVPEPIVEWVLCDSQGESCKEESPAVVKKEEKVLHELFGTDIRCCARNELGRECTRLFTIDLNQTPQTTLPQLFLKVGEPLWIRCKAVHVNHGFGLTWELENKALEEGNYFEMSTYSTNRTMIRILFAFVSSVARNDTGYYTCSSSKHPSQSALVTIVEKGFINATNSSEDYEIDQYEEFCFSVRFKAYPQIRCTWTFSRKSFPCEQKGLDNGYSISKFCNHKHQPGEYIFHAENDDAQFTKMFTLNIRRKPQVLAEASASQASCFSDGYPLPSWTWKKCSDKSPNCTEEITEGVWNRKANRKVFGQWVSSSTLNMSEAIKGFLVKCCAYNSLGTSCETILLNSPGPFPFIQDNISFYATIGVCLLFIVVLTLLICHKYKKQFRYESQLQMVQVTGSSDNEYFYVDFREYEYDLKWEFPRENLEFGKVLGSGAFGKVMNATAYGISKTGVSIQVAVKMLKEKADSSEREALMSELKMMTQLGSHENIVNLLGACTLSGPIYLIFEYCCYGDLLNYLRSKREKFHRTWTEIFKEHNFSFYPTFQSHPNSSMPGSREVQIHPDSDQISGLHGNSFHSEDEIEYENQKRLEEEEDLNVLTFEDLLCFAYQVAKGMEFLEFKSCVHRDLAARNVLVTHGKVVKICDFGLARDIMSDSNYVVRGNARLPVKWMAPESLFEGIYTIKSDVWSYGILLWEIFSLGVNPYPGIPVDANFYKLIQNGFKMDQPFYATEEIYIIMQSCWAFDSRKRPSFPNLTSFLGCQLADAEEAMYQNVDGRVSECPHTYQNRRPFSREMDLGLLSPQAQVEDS
T2 sequence (Q96SW2 whole entry partner): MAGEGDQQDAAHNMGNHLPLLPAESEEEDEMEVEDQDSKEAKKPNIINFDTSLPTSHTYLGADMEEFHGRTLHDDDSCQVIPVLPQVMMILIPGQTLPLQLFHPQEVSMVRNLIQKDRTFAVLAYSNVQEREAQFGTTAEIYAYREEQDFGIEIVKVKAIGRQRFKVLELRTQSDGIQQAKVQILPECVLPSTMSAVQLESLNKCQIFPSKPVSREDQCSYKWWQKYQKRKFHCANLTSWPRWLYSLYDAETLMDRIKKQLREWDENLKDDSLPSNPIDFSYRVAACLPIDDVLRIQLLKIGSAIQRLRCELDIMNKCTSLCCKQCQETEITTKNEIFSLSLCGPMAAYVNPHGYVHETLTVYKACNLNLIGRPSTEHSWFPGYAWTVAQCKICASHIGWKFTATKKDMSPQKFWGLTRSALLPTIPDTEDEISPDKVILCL
T1 sequence (P50750 whole entry, looked up): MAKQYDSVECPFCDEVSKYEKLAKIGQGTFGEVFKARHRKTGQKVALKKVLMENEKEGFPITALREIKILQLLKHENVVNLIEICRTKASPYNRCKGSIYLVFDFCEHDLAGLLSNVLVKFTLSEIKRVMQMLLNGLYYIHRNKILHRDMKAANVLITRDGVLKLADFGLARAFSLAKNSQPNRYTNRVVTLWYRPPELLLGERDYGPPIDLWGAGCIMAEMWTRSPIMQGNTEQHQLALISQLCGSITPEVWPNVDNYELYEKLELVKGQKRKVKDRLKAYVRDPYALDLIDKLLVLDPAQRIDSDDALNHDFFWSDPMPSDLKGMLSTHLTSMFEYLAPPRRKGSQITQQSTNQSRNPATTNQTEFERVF
T1 sequence (Q96SW2 whole entry, looked up): as the sequence (Q96SW2 whole entry partner) above
Receptor-type tyrosine-protein kinase FLT3 (Homo sapiens), sequence (P36888 whole entry): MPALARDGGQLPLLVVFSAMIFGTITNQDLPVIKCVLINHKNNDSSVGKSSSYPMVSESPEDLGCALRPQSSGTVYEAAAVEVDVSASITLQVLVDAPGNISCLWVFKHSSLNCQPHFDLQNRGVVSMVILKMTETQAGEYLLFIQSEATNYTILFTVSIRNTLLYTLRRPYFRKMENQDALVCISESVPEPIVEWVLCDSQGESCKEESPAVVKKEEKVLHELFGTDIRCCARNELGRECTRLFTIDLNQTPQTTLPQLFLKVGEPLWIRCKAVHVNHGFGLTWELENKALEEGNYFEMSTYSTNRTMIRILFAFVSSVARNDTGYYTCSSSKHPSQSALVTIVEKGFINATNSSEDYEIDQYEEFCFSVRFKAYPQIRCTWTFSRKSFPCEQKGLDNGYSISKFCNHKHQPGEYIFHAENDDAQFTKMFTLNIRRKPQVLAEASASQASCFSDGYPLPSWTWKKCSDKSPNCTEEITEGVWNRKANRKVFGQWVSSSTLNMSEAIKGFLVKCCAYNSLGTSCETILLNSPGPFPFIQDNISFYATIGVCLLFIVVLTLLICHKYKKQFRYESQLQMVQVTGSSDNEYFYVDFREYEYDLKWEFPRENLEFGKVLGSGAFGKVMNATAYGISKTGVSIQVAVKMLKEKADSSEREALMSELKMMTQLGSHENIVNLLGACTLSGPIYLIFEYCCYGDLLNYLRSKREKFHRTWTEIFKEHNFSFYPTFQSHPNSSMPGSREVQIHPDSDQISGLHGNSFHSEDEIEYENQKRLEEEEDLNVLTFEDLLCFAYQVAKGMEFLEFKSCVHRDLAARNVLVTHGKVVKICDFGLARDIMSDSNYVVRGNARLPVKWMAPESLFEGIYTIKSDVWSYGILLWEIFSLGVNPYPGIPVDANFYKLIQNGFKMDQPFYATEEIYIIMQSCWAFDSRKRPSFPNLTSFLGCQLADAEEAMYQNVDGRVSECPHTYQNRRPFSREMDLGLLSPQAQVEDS
Receptor-type tyrosine-protein kinase FLT3 (Homo sapiens), P36888 [UNDEFINED MUTATION], sequence (P36888 whole entry, looked up, stated change not applied): as the sequence (P36888 whole entry) above

NC1CCC(Nc2nc(Nc3ccc(N4CCN(CCOCCOCCNC(=O)CNc5cccc6c5C(=O)N(C5CCC(=O)NC5=O)C6=O)CC4)cc3)c3ncn(C4CCCC4)c3n2)CC1 (stereo not given)
Activity [1]: 57.33% | Activity [2]: Dose-Dependent Effect | Activity [3]: 6.05% | Activity [4]: 3.38% | GI50 [5]: 42 nM | Activity [6]: 11.53% | Activity [7]: inactive | Activity [8]: Active | Activity [9]: inactive | Activity [10]: 12.82% | Activity [11]: 82.36% | Activity [12]: 17.71% | Activity [13]: 6.85% | GI50 [14]: > 10 µM | Activity [15]: 6% | inhibition [16]: Active | Activity [17]: inactive | Activity [18]: 89.61% | Activity [19]: inactive | Activity [20]: 20.31% | GI50 [21]: > 10 µM | Activity [22]: 18.55% | Activity [23]: 2% | Activity [24]: 90.95% | Activity [25]: 3.96% | Activity [26]: 13.43% | Activity [27]: 28.88% | Activity [28]: Dose-Dependent Effect | Activity [29]: 12.68% | inhibition [30]: Active
